Measured values published in US6995281B2, “Methods for selectively removing counterions from compounds and compounds derived from such methods” (Pfizer, Inc., priority 2003, dated 2006).
Counter-ions that a name gives are not always drawn.

Experiments:
Assay type in all cases: physicochemical
[1] = Stability of free zwitterion samples at different pH by ion pairing gradient HPLC (Example 6, Table 2); settings: summary of Table 2
Method: Amberlite IRA400 (Cl) resin was rinsed with 3M HCl, water, and then 3M NaOH. Aliquots were 100 ml per 10 g of resin. This procedure was repeated 3 times in order to clean the resin and in order to generate the OH form. A final rinse with water was carried out until the conductivity of the eluting water was 2 μS. The resin was then used to titrate 40 ml of a 50 mg/ml solution of S-[2-[(1-Iminoethyl)amino]ethyl]-2-methyl-L-cysteine dihydrochloride. The concentration is expressed in terms of zwitterion equivalents. Aliquots were taken throughout the titration, filtered and analyzed by HPLC. Subsamples of the aliquots were saved for a second HPLC analysis 1 week after the titration was performed in order to assess the stability of the samples. Additional aliquots were taken for Cl analysis using an ion selective electrode. The pH was also monitored throughout the titration. HPLC analyses were performed using an ion pairing gradient method. […] HPLC Method • Pump A: 20 mM KH2PO4, 10 mM Pentane sulfonic acid, adjusted to pH=3 with phosphoric acid • Pump B: Acetonitrile • Gradient: 0% B at 0 min, 26% B at 15 min, 0% B at 15.1 min • Column: YMC ODS-AQ 120 A, 5 μm, 2.6×150 mm • Wavelength=205 nm

[2] = Pseudo-titration in water with IRA-400(OH) anion exchange resin, samples assayed by HPLC (Example 3); settings: not a true titration curve
Method: 60 g of Amberlite IRA400 (OH) resin (a strongly anionic quaternary ammonium polystyrene resin, about 16–50 mesh, available from Rohm & Haas, Philadelphia, Pa.,) was prewashed with 4.7 percent (by weight) ammonium hydroxide (50 ml of 28 percent ammonium hydroxide, 250 ml deionized water), followed by extensive washing with deionized water. The final conductivity was 6.1 μS.
Samples containing about 0.9 g of S-[2-[(1-Iminoethyl)amino]ethyl]-2-methyl-L-cysteine di-hydrochloride in 142 ml HCl/water solution, were concentrated on a rotary evaporator at 60° C. to an oil. To the oil, diluted to 60 ml with deionized water, was added aliquots of 0.5 g of washed anion exchange resin while stirring. At five minutes after each aliquot of resin was added, the solution pH was measured and a sample removed through a syringe filter. A total of 9 g of anion exchange resin was added. The final pH was 10.8. The resin was removed by filtration and the filtrate was concentrated to an oil by rotary evaporation at 60° C.; no solids formed. The starting material, final filtrate and all intermediate samples were assayed by HPLC and ion chromatography for chloride.
The diamond (solid line) is pH and square (dashed line) is S-[2-[(1-Iminoethyl)amino]ethyl]-2-methyl-L-cysteine (percent initial, by ion chromatography). […] The diamond (solid line) is pH and triangle (broken line) is chloride (by ion chromatography).
These curves are not true titration curves since samples were withdrawn during the progress of the reaction, and since true equilibrium was not attained before the increments of resin were added. Nevertheless, the graphs of FIG. 2 and FIG. 3 illustrate the expected trends. As resin is added to the S-[2-[(1-Iminoethyl)amino]ethyl]-2-methyl-L-cysteine solution the pH rises with change in slope around pH's of 2, 9 and 11. The pH's of slower rise are representative of the pK's of the carboxylic acid, amine and amidine functional groups, respectively. Above a pH of 10, the S-[2-[(1-Iminoethyl)amino]ethyl]-2-methyl-L-cysteine concentration in solution decreases. […]

[3] = HPLC analysis after removal of excess HCl with anion exchange resin (Example 4); settings: pH raised from 1.04 to 2.5 with Amberlite 400 (OH) resin
Method: To 3.3 g of sample containing around 305 mg/ml S-[2-[(1-Iminoethyl)amino]ethyl]-2-methyl-L-cysteine dihydrochloride and around 0.2 eq excess HCl, was added 16.7 g of deioinized water. The pH was 1.04. To 14 ml of this solution, prewashed Amberlite 400 (OH) resin was added to obtain a ph of 2.5. The anion exchange treatment lightened the color of the solution from light yellow to water white. The resin was removed by filtration and the starting material and filtrate product were analyzed by chloride titration and HPLC.

Compound | Degradation when made basic (HPLC) [1] | pH of slower rise representative of the pK of the amidine group [2] | pH of slower rise representative of the pK of the amine group [2] | pH of slower rise representative of the pK of the carboxylic acid group [2] | Qualitative HPLC analysis of starting material and product [3]
CC(=N)NCCSC[C@](C)(N)C(=O)O [S-[2-[(1-Iminoethyl)amino]ethyl]-2-methyl-L-cysteine] | degradation is not immediate but instead occurs over a period of days | ~11 | ~9 | ~2 | –
CC(=N)NCCSC[C@](C)(N)C(=O)O [Example 1, S-[2-[(1-Iminoethyl)amino]ethyl]-2-methyl-L-cysteine, dihydrochloride] | – | – | – | – | no new peaks and no increase in impurities
